Measurements reported in ChEMBL document CHEMBL4043119, “Synthesis and biological evaluation in vitro and in mammalian cells of new heteroaryl carboxyamides as HIV-protease inhibitors” (Bioorg Med Chem, 2017).
Active and inactive are the calls of the source. No cut-off for these calls is given here.

Legend:
[1] = (§1) Cytotoxicity against HEK293 cells after 24 hrs by MTT assay; format: cell-based; settings: human, HEK293 cells
HEK293 = experiment: as §1; format: cell-based; settings: human, hek293, 24 h
[2] = Inhibition of wild-type recombinant HIV-1 protease expressed in Escherichia coli using Abz-Thr-Ile-Nle-Phe(p-NO2)-Gln-Arg-NH2 as substrate by fluorescence assay; parameters: species or system Human immunodeficiency virus 1
[3] = test system: Human immunodeficiency virus 1; experiment: Inhibition of recombinant HIV-1 GFP-tagged protease expressed in HEK293 cells assessed as increase in GFP-tagged protease accumulation at 10 uM after 24 hrs by Western blot analysis; format: cell-based
[4] = test system: Human immunodeficiency virus 1; experiment: Inhibition of recombinant HIV-1 GFP-tagged protease expressed in HEK293 cells assessed as increase in GFP-tagged protease accumulation after 24 hrs by fluorescence microscopic analysis; format: cell-based
[5] = test system: Human immunodeficiency virus 1; experiment: Inhibition of recombinant HIV-1 GFP-tagged protease expressed in HEK293 cells assessed as increase in GFP-tagged protease accumulation at 10 to 30 uM after 24 hrs by flow cytometric analysis; format: cell-based
[6] = test system: Human immunodeficiency virus 1; experiment: Inhibition of recombinant HIV-1 GFP-tagged protease expressed in HEK293 cells assessed as increase in GFP-tagged protease accumulation at 10 uM after 24 hrs by flow cytometric analysis; format: cell-based

For COc1ccc(S(=O)(=O)N(CC(C)C)C[C@@H](O)[C@H](Cc2ccccc2)NC(=O)c2ccc3occc3c2)cc1OC, the CC50 at 24 h [1] was greater than 200 µM, the Activity (HEK293) was “Dose-dependent effect” and the IC50 [2] was 0.0011 µM. For the same compound, the “Inhibition (qualitative activity call)” value [3] was “Active”, the inhibition [4] was “Active” and the inhibition [5] was “Active”.

Compound COc1ccc(S(=O)(=O)N(CC(C)C)C[C@@H](O)CNC(=O)c2ccc3occc3c2)cc1OC has an IC50 [2] of 0.001 µM.

For COc1ccc(S(=O)(=O)N(CC(C)C)C[C@@H](O)[C@H](Cc2ccccc2)NC(=O)c2ccc3sccc3c2)cc1OC, the CC50 at 24 h [1] was greater than 200 µM, the Activity (HEK293) was “Dose-dependent effect” and the IC50 [2] was 0.013 µM. For the same compound, the “Inhibition (qualitative activity call)” value [3] was “Active”, the inhibition [4] was “Active” and the inhibition [5] was “Active”.

Compound COc1ccc(S(=O)(=O)N(CC(C)C)C[C@@H](O)CNC(=O)c2ccc3[nH]ccc3c2)cc1OC has an IC50 [2] of 4 µM.

In the case of COc1ccc(S(=O)(=O)N(CC(C)C)C[C@@H](O)CNC(=O)c2ccc3sccc3c2)cc1OC, the IC50 [2] is reported as 0.015 µM.

In the case of COc1ccc(S(=O)(=O)N(CC(C)C)C[C@@H](O)[C@H](Cc2ccccc2)NC(=O)c2ccc3[nH]ccc3c2)cc1OC, the CC50 at 24 h [1] is reported as greater than 200 µM, the Activity (HEK293) is reported as “Dose-dependent effect” and the IC50 [2] is reported as 0.002 µM. The “Inhibition (qualitative activity call)” value [3] was “Active”, the inhibition [4] was “Active” and the inhibition [5] was “Active”.

With CC(C)CN(C[C@@H](O)[C@H](Cc1ccccc1)NC(=O)O[C@H]1CO[C@H]2OCC[C@H]21)S(=O)(=O)c1ccc(N)cc1 the “Inhibition (qualitative activity call)” value [3] was “Active”, the inhibition [4] was “Active” and the inhibition [6] was “Active”.
